Results as given in ChEMBL document CHEMBL1687752, “Impact of antifungal prophylaxis on colonization and azole susceptibility of Candida species” (2009).

How the values were obtained:
Type in all cases: functional
Candida albicans [1] = test: Antifungal activity against 1 day cultured Candida albicans isolated from HSCT recipient with acute or chronic GVHD mouth after 2 days of prophylaxis by broth microdilution method
Candida albicans [2] = test: Antifungal activity against Candida albicans isolated from HSCT recipient 031 with acute or chronic GVHD mouth after 109 days prophylaxis by broth microdilution method
Nakaseomyces glabratus [3] = test: Antifungal activity against Candida glabrata isolated from neutropenic subjects with AML or MDS receiving posaconazole assessed as maximum MIC by broth microdilution method
Nakaseomyces glabratus [4] = test: Antifungal activity against 85 days cultured Candida glabrata isolated from HSCT recipient with acute or chronic GVHD mouth receiving antifungal therapy for 143 days after 116 days of prophylaxis by broth microdilution method
Nakaseomyces glabratus [5] = test: Antifungal activity against Candida glabrata isolated from neutropenic subject 1318 with AML or MDS stool after 36 days prophylaxis by broth microdilution method
Candida albicans [6] = test: Antifungal activity against Candida albicans isolated from HSCT recipients with acute or chronic GVHD prior to initiation of fluconazole therapy assessed as maximum MIC by broth microdilution method
Pichia kudriavzevii [7] = test: Antifungal activity against Candida krusei isolated from neutropenic subjects with AML or MDS prior to initiation of fluconazole therapy assessed as maximum MIC by broth microdilution method
Nakaseomyces glabratus [8] = test: Antifungal activity against Candida glabrata isolated from HSCT recipients with acute or chronic GVHD receiving fluconazole assessed as maximum MIC by broth microdilution method
Nakaseomyces glabratus [9] = test: Antifungal activity against Candida glabrata isolated from neutropenic subject 1331 with AML or MDS pharynx after 21 days prophylaxis by broth microdilution method; details: 504 h
Pichia kudriavzevii [10] = test: Antifungal activity against 14 days cultured Candida krusei isolated from neutropenic subject with AML or MDS stool after 12 days of prophylaxis by broth microdilution method
Pichia kudriavzevii [11] = test: Antifungal activity against 1 day cultured Candida krusei isolated from neutropenic subject with AML or MDS pharynx receiving antifungal therapy for 19 days after 6 days of prophylaxis by broth microdilution method
Nakaseomyces glabratus [12] = test: Antifungal activity against 59 days cultured Candida glabrata isolated from HSCT recipient with acute or chronic GVHD mouth receiving antifungal therapy for 75 days after 33 days of prophylaxis by broth microdilution method
Candida albicans [13] = test: Antifungal activity against Candida albicans isolated from HSCT recipients with acute or chronic GVHD receiving fluconazole assessed as maximum MIC by broth microdilution method
Candida albicans [14] = test: Antifungal activity against Candida albicans isolated from HSCT recipient 928 with acute or chronic GVHD mouth receiving antifungal drug after 112 days prophylaxis by broth microdilution method
Nakaseomyces glabratus [15] = test: Antifungal activity against Candida glabrata isolated from HSCT recipient 497 with acute or chronic GVHD mouth after 114 days prophylaxis by broth microdilution method
Pichia kudriavzevii [16] = test: Antifungal activity against Candida krusei isolated from HSCT recipients with acute or chronic GVHD receiving fluconazole by broth microdilution method
Pichia kudriavzevii [17] = test: Antifungal activity against 13 days cultured Candida krusei isolated from invasive fungal infected subject blood after 12 days of prophylaxis by broth microdilution method
Nakaseomyces glabratus [18] = test: Antifungal activity against 43 days cultured Candida glabrata isolated from HSCT recipient with acute or chronic GVHD mouth receiving antifungal therapy for 172 days after 114 days of prophylaxis by broth microdilution method
Nakaseomyces glabratus [19] = test: Antifungal activity against Candida glabrata isolated from neutropenic subject 1491 with AML or MDS pharynx after 23 days prophylaxis by broth microdilution method; details: 552 h
Nakaseomyces glabratus [20] = test: Antifungal activity against 111 days cultured Candida glabrata isolated from HSCT recipient with acute or chronic GVHD mouth receiving antifungal therapy for 143 days after 116 days of prophylaxis by broth microdilution method
Candida tropicalis = test: Antifungal activity against 2 days cultured Candida tropicalis isolated from neutropenic subject with AML or MDS stool receiving antifungal therapy for 45 days after 24 days of prophylaxis by broth microdilution method
Nakaseomyces glabratus [21] = test: Antifungal activity against 14 days cultured Candida glabrata isolated from HSCT recipient with acute or chronic GVHD mouth after 17 days of prophylaxis by broth microdilution method
Nakaseomyces glabratus [22] = test: Antifungal activity against Candida glabrata isolated from neutropenic subject 1331 with AML or MDS pharynx receiving antifungal drug after 21 days prophylaxis by broth microdilution method; details: 504 h
Candida albicans [23] = test: Antifungal activity against Candida albicans isolated from HSCT recipient 928 with acute or chronic GVHD mouth after 112 days prophylaxis by broth microdilution method
Nakaseomyces glabratus [24] = test: Antifungal activity against Candida glabrata isolated from neutropenic subject 1318 with AML or MDS stool receiving antifungal drug after 36 days prophylaxis by broth microdilution method
Pichia kudriavzevii [25] = test: Antifungal activity against 19 days cultured Candida krusei isolated from invasive fungal infected subject blood receiving antifungal therapy for 19 days after 6 days of prophylaxis by broth microdilution method
Candida albicans [26] = test: Antifungal activity against Candida albicans isolated from HSCT recipients with acute or chronic GVHD receiving posaconazole by broth microdilution method
Candida albicans [27] = test: Antifungal activity against Candida albicans isolated from neutropenic subjects with AML or MDS prior to initiation of posaconazole therapy assessed as maximum MIC by broth microdilution method
Pichia kudriavzevii [28] = test: Antifungal activity against 16 days cultured Candida krusei isolated from neutropenic subject with AML or MDS stool receiving antifungal therapy for 19 days after 6 days of prophylaxis by broth microdilution method
Candida albicans [29] = test: Antifungal activity against Candida albicans isolated from HSCT recipient 042 with acute or chronic GVHD mouth receiving antifungal drug after 112 days prophylaxis by broth microdilution method
Candida albicans [30] = test: Antifungal activity against Candida albicans isolated from HSCT recipients with acute or chronic GVHD receiving fluconazole by broth microdilution method
Nakaseomyces glabratus [31] = test: Antifungal activity against 29 days cultured Candida glabrata isolated from neutropenic subject with AML or MDS stool after 48 days of prophylaxis by broth microdilution method
Nakaseomyces glabratus [32] = test: Antifungal activity against 177 days cultured Candida glabrata isolated from HSCT recipient with acute or chronic GVHD mouth receiving antifungal therapy for 172 days after 114 days of prophylaxis by broth microdilution method
Candida albicans [33] = test: Antifungal activity against Candida albicans isolated from HSCT recipient 462 with acute or chronic GVHD mouth receiving antifungal drug after 112 days prophylaxis by broth microdilution method
Nakaseomyces glabratus [34] = test: Antifungal activity against Candida glabrata isolated from neutropenic subject 1491 with AML or MDS pharynx receiving antifungal drug after 23 days prophylaxis by broth microdilution method; details: 552 h
Candida albicans [35] = test: Antifungal activity against Candida albicans isolated from HSCT recipient 301 with acute or chronic GVHD mouth after 114 days prophylaxis by broth microdilution method
Nakaseomyces glabratus [36] = test: Antifungal activity against Candida glabrata isolated from HSCT recipient 975 with acute or chronic GVHD mouth after 112 days prophylaxis by broth microdilution method
Saccharomyces cerevisiae = test: Antifungal activity against Saccharomyces cerevisiae isolated from HSCT recipient 513 with acute or chronic GVHD mouth receiving antifungal drug after 112 days prophylaxis by broth microdilution method
Nakaseomyces glabratus [37] = test: Antifungal activity against Candida glabrata isolated from neutropenic subjects with AML or MDS prior to initiation of fluconazole therapy assessed as maximum MIC by broth microdilution method
Nakaseomyces glabratus [38] = test: Antifungal activity against Candida glabrata isolated from HSCT recipient 474 with acute or chronic GVHD mouth receiving antifungal drug after 124 days prophylaxis by broth microdilution method

OC(Cn1cncn1)(Cn1cncn1)c1ccc(F)cc1F [FLUCONAZOLE]
8 µg/mL: MIC (Nakaseomyces glabratus [9]) | MIC (Nakaseomyces glabratus [31]) | MIC (Candida albicans [33])
4 µg/mL: MIC (Nakaseomyces glabratus [5]) | MIC (Nakaseomyces glabratus [19]) | MIC (Nakaseomyces glabratus [36])
32 µg/mL: MIC (Pichia kudriavzevii [7]) | MIC (Pichia kudriavzevii [11]) | MIC (Pichia kudriavzevii [25]) | MIC (Nakaseomyces glabratus [32]) | MIC (Saccharomyces cerevisiae)
< 0.125 µg/mL: MIC (Candida albicans [23]) | MIC (Candida albicans [35])
16 µg/mL: MIC (Candida albicans [2]) | MIC (Candida albicans [6]) | MIC (Nakaseomyces glabratus [12]) | MIC (Nakaseomyces glabratus [15]) | MIC (Nakaseomyces glabratus [18]) | MIC90 (Candida albicans [26])
0.25 µg/mL: MIC (Candida tropicalis) | MIC50 (Candida albicans [26])
> 64 µg/mL: MIC (Pichia kudriavzevii [17]) | MIC (Nakaseomyces glabratus [21]) | MIC (Nakaseomyces glabratus [22]) | MIC (Nakaseomyces glabratus [24]) | MIC (Nakaseomyces glabratus [34])
1 µg/mL: MIC (Candida albicans [29]) | MIC50 (Candida albicans [30])
64 µg/mL: MIC (Nakaseomyces glabratus [3]) | MIC (Nakaseomyces glabratus [4]) | MIC (Nakaseomyces glabratus [8]) | MIC (Pichia kudriavzevii [10]) | MIC (Candida albicans [13]) | MIC50 (Pichia kudriavzevii [16]) | MIC90 (Pichia kudriavzevii [16]) | MIC (Nakaseomyces glabratus [20]) | MIC (Pichia kudriavzevii [28]) | MIC90 (Candida albicans [30]) | MIC (Nakaseomyces glabratus [37]) | MIC (Nakaseomyces glabratus [38])
128 µg/mL: MIC (Candida albicans [14])
2 µg/mL: MIC (Candida albicans [27])
< 0.12 µg/mL: MIC (Candida albicans [1])

CC[C@@H]([C@H](C)O)n1ncn(-c2ccc(N3CCN(c4ccc(OC[C@@H]5CO[C@@](Cn6cncn6)(c6ccc(F)cc6F)C5)cc4)CC3)cc2)c1=O [POSACONAZOLE]
> 8 µg/mL: MIC (Candida albicans [14])
1 µg/mL: MIC (Nakaseomyces glabratus [12]) | MIC (Nakaseomyces glabratus [18]) | MIC (Nakaseomyces glabratus [31]) | MIC (Nakaseomyces glabratus [32])
0.25 µg/mL: MIC (Pichia kudriavzevii [7]) | MIC50 (Pichia kudriavzevii [16]) | MIC (Pichia kudriavzevii [17]) | MIC (Pichia kudriavzevii [28]) | MIC (Nakaseomyces glabratus [36])
8 µg/mL: MIC (Nakaseomyces glabratus [3]) | MIC (Nakaseomyces glabratus [21]) | MIC (Nakaseomyces glabratus [22]) | MIC (Nakaseomyces glabratus [24]) | MIC (Nakaseomyces glabratus [34]) | MIC (Nakaseomyces glabratus [37])
0.12 µg/mL: MIC90 (Candida albicans [26])
2 µg/mL: MIC (Nakaseomyces glabratus [9])
< 0.015 µg/mL: MIC (Candida albicans [2]) | MIC (Candida tropicalis) | MIC (Candida albicans [23]) | MIC (Candida albicans [29]) | MIC (Candida albicans [35])
16 µg/mL: MIC (Nakaseomyces glabratus [8]) | MIC (Candida albicans [13]) | MIC90 (Candida albicans [30])
4 µg/mL: MIC (Nakaseomyces glabratus [4]) | MIC (Nakaseomyces glabratus [20]) | MIC (Saccharomyces cerevisiae) | MIC (Nakaseomyces glabratus [38])
0.06 µg/mL: MIC (Candida albicans [6]) | MIC (Pichia kudriavzevii [11]) | MIC (Pichia kudriavzevii [25]) | MIC (Candida albicans [27]) | MIC (Candida albicans [33])
0.5 µg/mL: MIC (Nakaseomyces glabratus [5]) | MIC (Nakaseomyces glabratus [15]) | MIC90 (Pichia kudriavzevii [16]) | MIC (Nakaseomyces glabratus [19])
0.125 µg/mL: MIC (Pichia kudriavzevii [10])
< 0.03 µg/mL: MIC (Candida albicans [1])
0.03 µg/mL: MIC50 (Candida albicans [26]) | MIC50 (Candida albicans [30])

CCC(C)n1ncn(-c2ccc(N3CCN(c4ccc(OCC5COC(Cn6cncn6)(c6ccc(Cl)cc6Cl)O5)cc4)CC3)cc2)c1=O (centres undefined) [ITRACONAZOLE]
2 µg/mL: MIC (Nakaseomyces glabratus [18])
4 µg/mL: MIC (Saccharomyces cerevisiae)
16 µg/mL: MIC (Candida albicans [13]) | MIC90 (Pichia kudriavzevii [16]) | MIC90 (Candida albicans [30])
0.06 µg/mL: MIC (Candida albicans [6]) | MIC (Candida albicans [29])
0.25 µg/mL: MIC (Nakaseomyces glabratus [5]) | MIC (Pichia kudriavzevii [10]) | MIC (Pichia kudriavzevii [17]) | MIC (Pichia kudriavzevii [25]) | MIC90 (Candida albicans [26]) | MIC (Pichia kudriavzevii [28]) | MIC (Nakaseomyces glabratus [36])
< 0.03 µg/mL: MIC (Candida albicans [1])
8 µg/mL: MIC (Nakaseomyces glabratus [3]) | MIC (Nakaseomyces glabratus [4]) | MIC (Nakaseomyces glabratus [22]) | MIC (Nakaseomyces glabratus [34]) | MIC (Nakaseomyces glabratus [37]) | MIC (Nakaseomyces glabratus [38])
> 8 µg/mL: MIC (Candida albicans [14]) | MIC (Nakaseomyces glabratus [20]) | MIC (Nakaseomyces glabratus [21]) | MIC (Nakaseomyces glabratus [24])
32 µg/mL: MIC (Nakaseomyces glabratus [8])
0.03 µg/mL: MIC (Candida albicans [2]) | MIC50 (Candida albicans [26]) | MIC (Candida albicans [27]) | MIC50 (Candida albicans [30]) | MIC (Candida albicans [33])
0.125 µg/mL: MIC (Pichia kudriavzevii [11])
1 µg/mL: MIC (Nakaseomyces glabratus [9]) | MIC (Nakaseomyces glabratus [12]) | MIC (Nakaseomyces glabratus [15]) | MIC (Nakaseomyces glabratus [19]) | MIC (Nakaseomyces glabratus [31]) | MIC (Nakaseomyces glabratus [32])
< 0.015 µg/mL: MIC (Candida tropicalis) | MIC (Candida albicans [23]) | MIC (Candida albicans [35])
0.5 µg/mL: MIC (Pichia kudriavzevii [7]) | MIC50 (Pichia kudriavzevii [16])
